According to paper PMC12420824, “Discovery of a selective alpha-kinase 1 inhibitor for the rare genetic disease ROSAH syndrome” (Nature Communications, 2025):
“And” between values parts separate entries of the source, which are not always exact repeats. Equal entries are not always repeated.

Assays:
[1] = molecular target: TRKC (Homo sapiens, UniProt Q16288); test: HotSpot kinase assay; conditions: read-out: % Enzyme Activity (relative to DMSO control), 10 uM
Source text: (§1) Additionally, a 10-dose dilution series of staurosporine and other enzyme-appropriate compounds were included as positive control inhibitors.

[2] = molecular target: PKD2/PRKD2 (Homo sapiens, UniProt Q9BZL6); test: HotSpot kinase assay; conditions: read-out: % Enzyme Activity (relative to DMSO control), 10 uM
Source text: as §1

[3] = molecular target: GRK6 (Homo sapiens, UniProt P43250); test: HotSpot kinase assay; conditions: read-out: % Enzyme Activity (relative to DMSO control), 10 uM
Source text: as §1

[4] = molecular target: SLK/STK2 (Homo sapiens, UniProt Q9H2G2); test: HotSpot kinase assay; conditions: read-out: % Enzyme Activity (relative to DMSO control), 10 uM
Source text: as §1

[5] = molecular target: EPHB1 (Homo sapiens, UniProt P54762); test: HotSpot kinase assay; conditions: read-out: % Enzyme Activity (relative to DMSO control), 10 uM
Source text: as §1

[6] = molecular target: MLK4 (Homo sapiens, UniProt Q5TCX8); test: HotSpot kinase assay; conditions: read-out: % Enzyme Activity (relative to DMSO control), 10 uM
[7] = molecular target: AKT1 (Homo sapiens, UniProt P31749); test: HotSpot kinase assay; conditions: read-out: % Enzyme Activity (relative to DMSO control), 10 uM
[8] = molecular target: GRK3 (Homo sapiens, UniProt P35626); test: HotSpot kinase assay; conditions: read-out: % Enzyme Activity (relative to DMSO control), 10 uM
Source text: as §1

[9] = molecular target: CK1a1 (Homo sapiens, UniProt P48729); test: HotSpot kinase assay; conditions: read-out: % Enzyme Activity (relative to DMSO control), 10 uM
Source text: as §1

[10] = test system: HEK-293 cells stably overexpressing ALPK1; test: Supernatant CXCL8 ELISA; conditions: ALPK1 OE
Procedure: In (a) each dot represents a single well measurement. […] Each dot represents the mean of duplicate technical repeats. c NF-κB reporter cells were transiently transfected with plasmids to overexpress human ALPK1 or ALPK1[T237M]. […] Supernatant CXCL8 levels were then measured by ELISA. In c−f data represent the mean ± SEM for the triplicate wells of each treatment group. Statistical outliers were determined using Grubb’s test and indicated in the Source Data file. In (d) statistical comparisons to the wild-type ALPK1-overexpressing stable cell line group were made using the two-tailed unpaired Student’s t-tests. In (b−f) curve fitting and IC50 value calculations were performed with GraphPad Prism 6.
To obtain HEK-293 cells stably overexpressing ALPK1 or ALPK1[T237M], codon-optimized DNA coding sequencing for Flag-tagged human ALPK1 and ALPK1[T237M] were inserted into the pcDNA3.1 vector. Plasmids were transfected into HEK-293 cells using Lipofectamine 2000 as per the manufacturer’s protocol. At 48 h post-transfection, G418 (#A1720, Sigma-Aldrich, St. Louis, MO, USA) was used to select resistant transformed cells, and single-cell clones were prepared through a limiting dilution-based approach. Western blotting (See Below) was used to assess Flag-tagged ALPK1 and ALPK1[T237M] overexpression. […] Cells were then harvested to analyze the expression of CXCL10, TNF, and CXCL8 by qPCR (See Below).

[11] = molecular target: PIM1 (Homo sapiens, UniProt P11309); test: HotSpot kinase assay; conditions: read-out: % Enzyme Activity (relative to DMSO control), 10 uM
Source text: as §1

[12] = molecular target: ERN2/IRE2 (Homo sapiens, UniProt Q76MJ5); test: HotSpot kinase assay; conditions: read-out: % Enzyme Activity (relative to DMSO control), 10 uM
Source text: as §1

[13] = molecular target: CAMK4 (Homo sapiens, UniProt Q16566); test: HotSpot kinase assay; conditions: read-out: % Enzyme Activity (relative to DMSO control), 10 uM
Source text: as §1

[14] = molecular target: BMPR2 (Homo sapiens, UniProt Q13873); test: HotSpot kinase assay; conditions: read-out: % Enzyme Activity (relative to DMSO control), 10 uM
[15] = molecular target: GLK/MAP4K3 (Homo sapiens, UniProt Q8IVH8); test: HotSpot kinase assay; conditions: read-out: % Enzyme Activity (relative to DMSO control), 10 uM
[16] = molecular target: MAPKAPK2 (Homo sapiens, UniProt P49137); test: HotSpot kinase assay; conditions: read-out: % Enzyme Activity (relative to DMSO control), 10 uM
Source text: as §1

[17] = molecular target: PKCb2 (Homo sapiens, UniProt P05771); test: HotSpot kinase assay; conditions: read-out: % Enzyme Activity (relative to DMSO control), 10 uM
Source text: as §1

[18] = molecular target: LIMK1 (Homo sapiens, UniProt P53667); test: HotSpot kinase assay; conditions: read-out: % Enzyme Activity (relative to DMSO control), 10 uM
[19] = molecular target: EPHA7 (Homo sapiens, UniProt Q15375); test: HotSpot kinase assay; conditions: read-out: % Enzyme Activity (relative to DMSO control), 10 uM
Source text: as §1

[20] = molecular target: TAOK1 (Homo sapiens, UniProt Q7L7X3); test: HotSpot kinase assay; conditions: read-out: % Enzyme Activity (relative to DMSO control), 10 uM
[21] = molecular target: AMPK(A2/B2/G1) (Homo sapiens, UniProt P54646); test: HotSpot kinase assay; conditions: read-out: % Enzyme Activity (relative to DMSO control), 10 uM
[22] = molecular target: CK1G3 (Homo sapiens, UniProt Q9Y6M4); test: HotSpot kinase assay; conditions: read-out: % Enzyme Activity (relative to DMSO control), 10 uM
Source text: as §1

[23] = molecular target: EPHB2 (Homo sapiens, UniProt P29323); test: HotSpot kinase assay; conditions: read-out: % Enzyme Activity (relative to DMSO control), 10 uM
Source text: as §1

[24] = molecular target: EGFR (Homo sapiens, UniProt P00533); test: HotSpot kinase assay; conditions: read-out: % Enzyme Activity (relative to DMSO control), 10 uM
Source text: as §1

[25] = molecular target: AMPK(A2/B2/G3) (Homo sapiens, UniProt P54646); test: HotSpot kinase assay; conditions: read-out: % Enzyme Activity (relative to DMSO control), 10 uM
Source text: as §1

[26] = molecular target: MYLK4 (Homo sapiens, UniProt Q86YV6); test: HotSpot kinase assay; conditions: read-out: % Enzyme Activity (relative to DMSO control), 10 uM
Source text: as §1

[27] = molecular target: FGR (Homo sapiens, UniProt P09769); test: HotSpot kinase assay; conditions: read-out: % Enzyme Activity (relative to DMSO control), 10 uM
Source text: as §1

[28] = molecular target: FLT1/VEGFR1 (Homo sapiens, UniProt P17948); test: HotSpot kinase assay; conditions: read-out: % Enzyme Activity (relative to DMSO control), 10 uM
Source text: as §1

[29] = molecular target: RSK1 (Homo sapiens, UniProt Q15418); test: HotSpot kinase assay; conditions: read-out: % Enzyme Activity (relative to DMSO control), 10 uM
[30] = molecular target: p70S6K/RPS6KB1 (Homo sapiens, UniProt P23443); test: HotSpot kinase assay; conditions: read-out: % Enzyme Activity (relative to DMSO control), 10 uM
[31] = molecular target: DDR1 (Homo sapiens, UniProt Q08345); test: HotSpot kinase assay; conditions: read-out: % Enzyme Activity (relative to DMSO control), 10 uM
Source text: as §1

[32] = molecular target: TTBK1 (Homo sapiens, UniProt Q5TCY1); test: HotSpot kinase assay; conditions: read-out: % Enzyme Activity (relative to DMSO control), 10 uM
Source text: as §1

[33] = molecular target: PKAcb (Homo sapiens, UniProt P22694); test: HotSpot kinase assay; conditions: read-out: % Enzyme Activity (relative to DMSO control), 10 uM
Source text: as §1

[34] = molecular target: NEK1 (Homo sapiens, UniProt Q96PY6); test: HotSpot kinase assay; conditions: read-out: % Enzyme Activity (relative to DMSO control), 10 uM
Source text: as §1

[35] = molecular target: SIK3 (Homo sapiens, UniProt Q9Y2K2); test: HotSpot kinase assay; conditions: read-out: % Enzyme Activity (relative to DMSO control), 10 uM
Source text: as §1

[36] = test system: hALPK1-KI mice; test: Retinal astrocyte activation (GFAP); conditions: individual animals
[37] = molecular target: CDK18/cyclin Y (PCTK3) (Homo sapiens, UniProt Q07002); test: HotSpot kinase assay; conditions: read-out: % Enzyme Activity (relative to DMSO control), 10 uM
CDK18/cyclin Y (PCTK3), sequence (Q07002 whole entry): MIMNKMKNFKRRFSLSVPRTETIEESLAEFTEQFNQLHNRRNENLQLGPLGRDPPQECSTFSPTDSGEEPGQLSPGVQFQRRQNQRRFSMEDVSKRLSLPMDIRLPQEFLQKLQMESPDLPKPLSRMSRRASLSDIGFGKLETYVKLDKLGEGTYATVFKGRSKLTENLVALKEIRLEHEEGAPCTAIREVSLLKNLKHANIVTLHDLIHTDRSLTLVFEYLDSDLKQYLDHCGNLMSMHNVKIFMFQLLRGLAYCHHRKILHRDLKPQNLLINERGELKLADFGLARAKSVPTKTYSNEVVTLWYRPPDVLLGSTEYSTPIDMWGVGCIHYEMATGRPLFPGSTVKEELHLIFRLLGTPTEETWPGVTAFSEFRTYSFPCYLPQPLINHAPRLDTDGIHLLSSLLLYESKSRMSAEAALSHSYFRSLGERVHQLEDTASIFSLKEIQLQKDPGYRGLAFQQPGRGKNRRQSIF
CDK18/cyclin Y (PCTK3), sequence (Q8ND76 whole entry partner): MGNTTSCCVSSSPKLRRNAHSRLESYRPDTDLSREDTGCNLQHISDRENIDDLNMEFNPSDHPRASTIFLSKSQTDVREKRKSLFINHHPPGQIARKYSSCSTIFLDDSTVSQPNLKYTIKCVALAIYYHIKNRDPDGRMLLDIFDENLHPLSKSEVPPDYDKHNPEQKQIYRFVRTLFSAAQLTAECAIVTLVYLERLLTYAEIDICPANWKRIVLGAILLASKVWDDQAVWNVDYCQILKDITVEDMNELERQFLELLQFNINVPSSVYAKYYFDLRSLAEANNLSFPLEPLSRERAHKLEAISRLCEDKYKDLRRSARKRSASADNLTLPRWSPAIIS
Source text: as §1

MYLK4, sequence (Q86YV6 whole entry): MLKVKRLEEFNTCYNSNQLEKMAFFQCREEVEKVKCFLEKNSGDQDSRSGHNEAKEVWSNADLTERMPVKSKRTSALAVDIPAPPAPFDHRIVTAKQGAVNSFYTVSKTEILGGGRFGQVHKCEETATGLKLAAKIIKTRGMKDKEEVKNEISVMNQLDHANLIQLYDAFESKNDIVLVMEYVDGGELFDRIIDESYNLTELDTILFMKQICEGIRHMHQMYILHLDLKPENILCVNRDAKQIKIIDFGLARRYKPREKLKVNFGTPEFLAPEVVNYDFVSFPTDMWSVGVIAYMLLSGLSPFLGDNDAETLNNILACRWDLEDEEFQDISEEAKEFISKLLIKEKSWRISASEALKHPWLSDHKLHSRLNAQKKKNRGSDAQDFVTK
CK1a1, sequence (P48729 whole entry): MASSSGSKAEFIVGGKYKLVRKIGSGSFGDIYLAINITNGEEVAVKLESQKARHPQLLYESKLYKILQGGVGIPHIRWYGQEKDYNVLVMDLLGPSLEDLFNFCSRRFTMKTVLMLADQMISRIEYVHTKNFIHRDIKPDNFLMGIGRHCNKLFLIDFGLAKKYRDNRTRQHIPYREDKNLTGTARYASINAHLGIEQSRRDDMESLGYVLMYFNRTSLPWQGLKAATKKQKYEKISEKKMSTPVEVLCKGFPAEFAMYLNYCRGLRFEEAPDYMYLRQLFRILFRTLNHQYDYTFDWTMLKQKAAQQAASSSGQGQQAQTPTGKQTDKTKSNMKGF
MLK4, sequence (Q5TCX8 whole entry): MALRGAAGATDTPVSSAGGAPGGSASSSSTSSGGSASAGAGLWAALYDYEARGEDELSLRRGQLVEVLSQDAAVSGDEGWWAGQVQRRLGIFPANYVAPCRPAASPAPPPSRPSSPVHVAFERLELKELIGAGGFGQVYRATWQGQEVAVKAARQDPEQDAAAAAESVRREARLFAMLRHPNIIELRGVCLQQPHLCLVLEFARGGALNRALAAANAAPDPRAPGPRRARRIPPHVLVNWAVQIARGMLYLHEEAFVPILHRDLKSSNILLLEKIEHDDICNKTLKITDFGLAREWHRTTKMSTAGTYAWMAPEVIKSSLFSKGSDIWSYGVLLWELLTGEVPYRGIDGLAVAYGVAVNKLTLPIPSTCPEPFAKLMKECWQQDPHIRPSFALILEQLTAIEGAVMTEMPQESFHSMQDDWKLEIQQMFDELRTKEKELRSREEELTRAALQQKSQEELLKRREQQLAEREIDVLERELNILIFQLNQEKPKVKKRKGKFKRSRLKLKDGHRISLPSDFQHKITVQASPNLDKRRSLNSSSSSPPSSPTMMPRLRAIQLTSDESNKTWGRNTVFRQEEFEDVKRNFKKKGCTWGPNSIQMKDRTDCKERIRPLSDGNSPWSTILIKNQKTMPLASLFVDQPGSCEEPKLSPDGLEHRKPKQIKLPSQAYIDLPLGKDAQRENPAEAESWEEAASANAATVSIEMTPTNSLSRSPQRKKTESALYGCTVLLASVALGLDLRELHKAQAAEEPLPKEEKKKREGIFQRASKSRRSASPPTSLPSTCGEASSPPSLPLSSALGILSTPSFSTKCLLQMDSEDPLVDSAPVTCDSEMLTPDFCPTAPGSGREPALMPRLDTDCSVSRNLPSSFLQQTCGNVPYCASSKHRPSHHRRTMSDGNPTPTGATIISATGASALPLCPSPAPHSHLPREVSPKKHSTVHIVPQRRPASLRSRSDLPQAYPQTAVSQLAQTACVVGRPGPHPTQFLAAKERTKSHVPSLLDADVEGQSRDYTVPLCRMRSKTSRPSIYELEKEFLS
BMPR2, sequence (Q13873 27-1038): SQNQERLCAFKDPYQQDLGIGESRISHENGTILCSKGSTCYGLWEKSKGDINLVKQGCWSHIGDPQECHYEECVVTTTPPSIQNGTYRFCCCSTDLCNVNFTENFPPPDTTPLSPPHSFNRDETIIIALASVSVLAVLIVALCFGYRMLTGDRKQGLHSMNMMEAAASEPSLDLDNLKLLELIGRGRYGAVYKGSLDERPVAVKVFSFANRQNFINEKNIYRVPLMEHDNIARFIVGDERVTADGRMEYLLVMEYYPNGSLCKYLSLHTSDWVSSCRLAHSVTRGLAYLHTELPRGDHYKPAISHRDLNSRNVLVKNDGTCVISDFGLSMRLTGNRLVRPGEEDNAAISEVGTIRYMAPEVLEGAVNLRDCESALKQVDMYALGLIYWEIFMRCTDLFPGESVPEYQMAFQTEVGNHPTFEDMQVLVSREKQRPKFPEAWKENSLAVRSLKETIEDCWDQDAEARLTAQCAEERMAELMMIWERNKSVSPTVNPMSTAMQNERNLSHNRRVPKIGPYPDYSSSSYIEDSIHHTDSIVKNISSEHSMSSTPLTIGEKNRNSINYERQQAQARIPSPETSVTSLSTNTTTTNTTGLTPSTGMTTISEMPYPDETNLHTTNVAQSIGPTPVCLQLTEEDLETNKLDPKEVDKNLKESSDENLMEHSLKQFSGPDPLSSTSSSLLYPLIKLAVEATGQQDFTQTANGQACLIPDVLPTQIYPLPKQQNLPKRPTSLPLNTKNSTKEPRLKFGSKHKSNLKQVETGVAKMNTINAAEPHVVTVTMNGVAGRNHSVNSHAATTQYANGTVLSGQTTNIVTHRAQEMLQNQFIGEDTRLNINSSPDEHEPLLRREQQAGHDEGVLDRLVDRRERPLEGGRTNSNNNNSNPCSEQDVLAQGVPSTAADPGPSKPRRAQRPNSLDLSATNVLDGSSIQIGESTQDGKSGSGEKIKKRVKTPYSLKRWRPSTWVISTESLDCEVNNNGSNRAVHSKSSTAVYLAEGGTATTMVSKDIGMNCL
DDR1, sequence (Q08345 19-913): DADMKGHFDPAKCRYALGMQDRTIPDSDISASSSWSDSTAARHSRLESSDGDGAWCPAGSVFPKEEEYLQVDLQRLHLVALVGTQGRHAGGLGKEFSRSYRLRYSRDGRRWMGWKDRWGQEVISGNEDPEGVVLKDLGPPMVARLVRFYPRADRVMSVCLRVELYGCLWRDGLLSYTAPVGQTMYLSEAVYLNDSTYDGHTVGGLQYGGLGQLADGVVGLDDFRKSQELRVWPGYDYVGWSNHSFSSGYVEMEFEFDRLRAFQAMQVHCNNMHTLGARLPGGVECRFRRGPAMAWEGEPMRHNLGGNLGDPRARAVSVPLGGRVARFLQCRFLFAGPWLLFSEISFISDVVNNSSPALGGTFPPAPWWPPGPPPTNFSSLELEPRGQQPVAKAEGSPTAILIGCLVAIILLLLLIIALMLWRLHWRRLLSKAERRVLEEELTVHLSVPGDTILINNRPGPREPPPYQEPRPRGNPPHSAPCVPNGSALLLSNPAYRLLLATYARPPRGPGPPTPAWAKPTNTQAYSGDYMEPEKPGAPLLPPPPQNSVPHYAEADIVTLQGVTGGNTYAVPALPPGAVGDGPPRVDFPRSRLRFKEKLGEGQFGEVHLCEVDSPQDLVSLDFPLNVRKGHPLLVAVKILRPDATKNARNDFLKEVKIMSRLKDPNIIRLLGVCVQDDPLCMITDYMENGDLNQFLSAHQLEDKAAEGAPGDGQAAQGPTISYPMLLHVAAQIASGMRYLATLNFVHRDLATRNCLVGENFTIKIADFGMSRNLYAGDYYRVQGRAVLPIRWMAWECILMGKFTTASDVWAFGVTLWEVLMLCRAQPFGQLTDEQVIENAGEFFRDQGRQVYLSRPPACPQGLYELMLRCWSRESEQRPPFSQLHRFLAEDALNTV
AKT1, sequence (P31749 whole entry): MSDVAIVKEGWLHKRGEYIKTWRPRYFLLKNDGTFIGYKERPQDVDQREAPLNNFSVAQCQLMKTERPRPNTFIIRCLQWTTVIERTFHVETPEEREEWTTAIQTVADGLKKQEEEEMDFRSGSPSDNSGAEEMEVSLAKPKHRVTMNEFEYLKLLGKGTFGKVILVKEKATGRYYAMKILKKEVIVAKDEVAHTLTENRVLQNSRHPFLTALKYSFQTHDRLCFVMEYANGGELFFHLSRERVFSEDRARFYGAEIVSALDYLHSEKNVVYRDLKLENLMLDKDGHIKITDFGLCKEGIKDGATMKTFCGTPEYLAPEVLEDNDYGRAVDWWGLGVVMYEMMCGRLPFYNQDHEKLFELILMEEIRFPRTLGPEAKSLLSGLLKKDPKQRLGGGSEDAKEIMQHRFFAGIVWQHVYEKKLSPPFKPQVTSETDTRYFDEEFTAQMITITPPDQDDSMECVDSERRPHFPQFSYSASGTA

C#C[C@@](C)(c1ccc(Cl)cc1)c1csc(NC(=O)c2c(F)cc(N3CCNCC3)cc2F)n1 (stereo in doubt) [DF-003]
remaining activity at 10 µM [1]: 91%
remaining activity at 10 µM [2]: 85.9%
remaining activity at 10 µM [3]: 117%
remaining activity at 10 µM [4]: 89%
remaining activity at 10 µM [5]: 80.8%
remaining activity at 10 µM [6]: 85.8%
remaining activity at 10 µM [7]: 81.4%
remaining activity at 10 µM [8]: 111%
remaining activity at 10 µM [9]: 90.5%
Supernatant CXCL8 level (ELISA) ([10]; Log [DF-003 (nM)] 0.3035): 652.652 and 657.101 and 652.360
Supernatant CXCL8 level (ELISA) ([10]; Log [DF-003 (nM)] 0.8032): 717.775 and 649.393 and 582.315
Supernatant CXCL8 level (ELISA) ([10]; Log [DF-003 (nM)] 1.3029): 735.124 and 626.517 and 638.135
Supernatant CXCL8 level (ELISA) ([10]; Log [DF-003 (nM)] 2.8020): 0.000
Supernatant CXCL8 level (ELISA) ([10]; Log [DF-003 (nM)] 3.3017): 0.000
Supernatant CXCL8 level (ELISA) ([10]; Log [DF-003 (nM)] 3.8013): 0.000
Supernatant CXCL8 level (ELISA) ([10]; Log [DF-003 (nM)] -0.1962): 619.393 and 689.438 and 663.124
remaining activity at 10 µM [11]: 74%
remaining activity at 10 µM [12]: 62.1%
remaining activity at 10 µM [13]: 34.5%
remaining activity at 10 µM [14]: 113%
remaining activity at 10 µM [15]: 77.3%
remaining activity at 10 µM [16]: 108%
remaining activity at 10 µM [17]: 85.2%
remaining activity at 10 µM [18]: 98.3%
remaining activity at 10 µM [19]: 105%
remaining activity at 10 µM [20]: 16.8%
remaining activity at 10 µM [21]: 90.2%
remaining activity at 10 µM [22]: 92.5%
remaining activity at 10 µM [23]: 101%
remaining activity at 10 µM [24]: 93.7%
remaining activity at 10 µM [25]: 85%
remaining activity at 10 µM [26]: 87.1%
remaining activity at 10 µM [27]: 97.8%
remaining activity at 10 µM [28]: 79.2%
remaining activity at 10 µM [29]: 69.2%
remaining activity at 10 µM [30]: 69.6%
remaining activity at 10 µM [31]: 85.1%
remaining activity at 10 µM [32]: 84.2%
remaining activity at 10 µM [33]: 91.6%
remaining activity at 10 µM [34]: 106%
remaining activity at 10 µM [35]: 79.6%
Length of retina nerve fiber layer with positive GFAP staining (%) ([36]; DF-003 3mpk): 5.89%
Length of retina nerve fiber layer with positive GFAP staining (%) ([36]; DF-003 3mpk, 3 mg/kg): *36.72% and 4.72% and 11.49% and 5.82% and 8.23% and 8.01%
Length of retina nerve fiber layer with positive GFAP staining (%) ([36]; DF-003 5mpk, 5 mg/kg): 0.34% and 3.64% and 11.44% and 5.19% and 4.22% and 29.43% and 8.01%
remaining activity at 10 µM [37]: 92.3%
